The test system of experiment [1] is EGFR. Kind of experiment: Western blot degradation of EGFR (H1975 Cell). It counts as cell-based, Human. The note with it: Table D2. Put shortly: (§1)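 Degradation is assessed by immunoblotting lysates of treated cells. Target bands are quantified by grayscale and normalised to an internal control, so degradation rate equals 100% minus % remaining.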
On the technique in general: Immunoblotting shows a protein as a band on a membrane.

The test system of experiment [2] is HCC827. Kind of experiment: CCK-8 proliferation, HCC827. It counts as cell-based, Human. The settings on record: Homo sapiens, HCC827; CCK-8; 96 hours; read-out: Inhibitory activity (IC50) on tumor cell proliferation, HCC827. On the procedure:
(§2) The tumor cells used herein were cultured in a cell culture medium listed in table A1 at 37°C in an incubator with 5% CO2. Prior to experimentation, all cell lines used were correctly identified by STR profiling, and tested negative for mycoplasma contamination using a mycoplasma detection kit through routine screenings. Table A1. Tumor cells and cell culture medium used in the present disclosure
(§3) IC50 values of the compounds of the present disclosure (including the compounds in Table 1, and compounds of examples) were measured using the Meilun Cell Counting Kit-8 kit from Dalian Meilun Biotech Co., Ltd. Assay details are as follows: tumor cells were seeded in a 96-well plate at a density listed in Table A2. After 24h, 100 µL of the inoculated cells were treated with 0.5µL of the compounds of the present disclosure (including the compounds in Tables 1 and 2, and compounds of examples) at 10 different successively decreasing concentrations (starting at the highest concentration of 10µM; 5-fold serial dilutions). After the cells were treated with the compounds of the present disclosure for a period of time, the cell viability detection reagent was added to the culture medium for cell viability assessment according to the instructions provided with the CCK-8 kit. […] The growth inhibition of the compounds of the present disclosure on cells was plotted by Prism Graphpad software, and the IC50 values of the compounds of the present disclosure were calculated therefrom. […] Seeding protocol and treatment time for tumor cells

The test system of experiment [3] is PC-9. Description: CCK-8 proliferation, PC-9. It counts as cell-based, Human. The settings on record: Homo sapiens, PC-9; CCK-8; 96 hours; read-out: Inhibitory activity (IC50) on tumor cell proliferation, PC-9. In a few lines:
(§4)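 CCK-8 viability readout; IC50 from growth-inhibition curve fitting. Cells plated, dosed 24h later with a 10-point series, top 10µM, 5-fold steps. Culture at 37°C, 5% CO2.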

In experiment [4] the test system is H1975. Kind of experiment: CCK-8 proliferation, NCI-H1975 (H1975). The note with it: Homo sapiens, NCI-H1975; CCK-8; 96 hours; read-out: Inhibitory activity (IC50) on tumor cell proliferation, H1975. It counts as cell-based, Human. In a few lines: as §4
The target in experiment [5] is T1, IRAK4 (Homo sapiens, UniProt Q9NWZ3).
T1 construct: evaluate the effects of the compounds of the present disclosure on the expression of target proteins in cells; endogenous in cells; host or cells: hPBMC
T1 sequence (Q9NWZ3 1-460): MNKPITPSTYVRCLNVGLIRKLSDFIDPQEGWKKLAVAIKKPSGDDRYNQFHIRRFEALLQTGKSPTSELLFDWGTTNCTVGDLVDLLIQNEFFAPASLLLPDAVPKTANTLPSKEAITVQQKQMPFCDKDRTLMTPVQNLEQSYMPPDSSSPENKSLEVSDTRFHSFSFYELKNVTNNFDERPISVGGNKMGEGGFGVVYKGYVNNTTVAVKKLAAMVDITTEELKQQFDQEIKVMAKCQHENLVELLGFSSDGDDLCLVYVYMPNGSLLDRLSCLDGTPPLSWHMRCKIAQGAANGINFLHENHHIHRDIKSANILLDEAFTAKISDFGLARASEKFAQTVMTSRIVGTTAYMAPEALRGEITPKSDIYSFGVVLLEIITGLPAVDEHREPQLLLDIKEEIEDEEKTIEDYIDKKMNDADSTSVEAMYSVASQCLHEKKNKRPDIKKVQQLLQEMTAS
Description: Western blot degradation of IRAK4 (hPBMC). In kind it is cell-based. The note with it: Table D1. In a few lines: as §1

Experiment [6] deals with MGC-803. Kind of experiment: CCK-8 proliferation, MGC-803 (heads: MGC80-3, MGC803). It counts as cell-based, Human. The note with it: Homo sapiens, MGC-803; Table B10, compounds designed based on the IRAK4 inhibitors; MGC803 cells; read-out: Inhibitory activity (IC50, nM) on tumor cell proliferation, MGC803. The protocol:
as §2, §3

Experiment [7] has as its system MM.1S. Kind of experiment: CCK-8 proliferation, MM.1S. In kind it is cell-based. The note with it: Homo sapiens, MM1.S; Table B10, compounds designed based on the IRAK4 inhibitors; MM.1S cells; read-out: Inhibitory activity (IC50, nM) on tumor cell proliferation, MM.1S. In a few lines:
as §4

Bounds are passed on as bounds.

Take `O=C1CCC(c2ccc(CN3CCN(c4ccc(Nc5ncc6nc(Nc7ccccc7)n(C7CCCC7)c6n5)cc4)CC3)cc2)C(=O)N1` (stereo not drawn) [GT-03740, 3-(4-((4-(4-((9-cyclopentyl-8-(phenylamino)-9H-purin-2-yl)amino)phenyl)piperazin-1-yl)methyl)phenyl)piperidine-2,6-dione]: the “Degradation of substrate protein EGFR (substrate protein remaining %)” value in experiment [1] is “A (A is defined as 0% ≤ substrate protein remaining % ≤ 80%)”. In addition, the IC50 in experiment [2] and in experiment [3] was 10 to 50 nM each time.

Consider `CN(Cc1ccc(C2CCC(=O)NC2=O)cc1)C1CCN(c2ccc(Nc3ncc4nc(Nc5ccccc5)n(C5CCCC5)c4n3)cc2)CC1` (stereo not drawn) [GT-03863, 3-(4-(((1-(4-((9-cyclopentyl-8-(phenylamino)-9H-purin-2-yl)amino)phenyl)piperidin-4-yl)(methyl)amino)methyl)phenyl)piperidine-2,6-dione], for which the “Degradation of substrate protein EGFR (substrate protein remaining %)” value in experiment [1] is on record as “A (A is defined as 0% ≤ substrate protein remaining % ≤ 80%)”. The IC50 was 1 to 10 nM in experiment [2], 1 to 10 nM in experiment [3] and 100 to 500 nM in experiment [4].

In the case of `CN(Cc1ccc(C2CCC(=O)NC2=O)c(F)c1)C1CCN(c2ccc(Nc3ncc4nc(Nc5ccccc5)n(C5CCCC5)c4n3)cc2)CC1` (stereo not drawn) [GT-03864, 3-(4-(((1-(4-((9-cyclopentyl-8-(phenylamino)-9H-purin-2-yl)amino)phenyl)piperidin-4-yl)(methyl)amino)methyl)-2-fluorophenyl)piperidine-2,6-dione], the “Degradation of substrate protein EGFR (substrate protein remaining %)” value in experiment [1] is recorded as “A (A is defined as 0% ≤ substrate protein remaining % ≤ 80%)”. Also, the results for the IC50 in experiment [2], in experiment [3] and in experiment [4] were 1 to 10 nM, 1 to 10 nM and 100 to 500 nM, respectively.

Regarding `COc1cc2nn(C3CCN(Cc4ccc(C5CCC(=O)NC5=O)c(F)c4)CC3)cc2cc1NC(=O)c1cccc(C(F)(F)F)n1` (stereo not drawn) [GT-04762, N-(2-(1-(4-(2,6-dioxopiperidin-3-yl)-3-fluorobenzyl)piperidin-4-yl)-6-methoxy-2H-indazol-5-yl)-6-(trifluoromethyl)picolinamide], the “Degradation of substrate protein IRAK4 (substrate protein remaining %)” value in experiment [5] is on record as “A (A is defined as 0% ≤ substrate protein remaining % ≤ 80%)”. In experiment [6], the IC50 lay within 500 to 1000 nM.

Turning to `O=C1CCN(c2cccc(CN3CCN(c4ccc(Nc5ncc6nc(Nc7ccccc7)n(C7CCCC7)c6n5)cc4)CC3)c2)C(=O)N1` [GT-05838, 1-(3-((4-(4-((9-cyclopentyl-8-(phenylamino)-9H-purin-2-yl)amino)phenyl)piperazin-1-yl)methyl)phenyl)dihydropyrimidine-2,4(1H,3H)-dione], the “Degradation of substrate protein EGFR (substrate protein remaining %)” value in experiment [1] is reported as “A (A is defined as 0% ≤ substrate protein remaining % ≤ 80%)”. Also, the IC50 lay in the range of 1 to 10 nM in experiment [2], 1 to 10 nM in experiment [3] and 100 to 500 nM in experiment [4].

Regarding `O=C1CCN(c2ccc(CN3CCN(c4ccc(Nc5ncc6nc(Nc7ccccc7)n(C7CCCC7)c6n5)cc4)CC3)nc2)C(=O)N1` [GT-05839, 1-(6-((4-(4-((9-cyclopentyl-8-(phenylamino)-9H-purin-2-yl)amino)phenyl)piperazin-1-yl)methyl)pyridin-3-yl)dihydropyrimidine-2,4(1H,3H)-dione], the “Degradation of substrate protein EGFR (substrate protein remaining %)” value in experiment [1] is “A (A is defined as 0% ≤ substrate protein remaining % ≤ 80%)”. The IC50 in experiment [2] lay within 10 to 50 nM; in experiment [3], 1 to 10 nM; in experiment [4], 100 to 500 nM.

Consider `O=C1CCN(c2ccc(CN3CCN(c4ccc(Nc5ncc6nc(Nc7ccccc7)n(C7CCCC7)c6n5)cc4)CC3)cn2)C(=O)N1` [GT-05840, 1-(5-((4-(4-((9-cyclopentyl-8-(phenylamino)-9H-purin-2-yl)amino)phenyl)piperazin-1-yl)methyl)pyridin-2-yl)dihydropyrimidine-2,4(1H,3H)-dione], for which the “Degradation of substrate protein EGFR (substrate protein remaining %)” value in experiment [1] is “A (A is defined as 0% ≤ substrate protein remaining % ≤ 80%)”. The IC50 was 10 to 50 nM in experiment [2], 1 to 10 nM in experiment [3] and 100 to 500 nM in experiment [4].

Regarding `O=C1CCC(Nc2cccc(CN3CCN(c4ccc(Nc5ncc6nc(Nc7ccccc7)n(C7CCCC7)c6n5)cc4)CC3)c2)C(=O)N1` (stereo not drawn) [GT-05841, 3-((3-((4-(4-((9-cyclopentyl-8-(phenylamino)-9H-purin-2-yl)amino)phenyl)piperazin-1-yl)methyl)phenyl)amino)piperidine-2,6-dione], in experiment [1], the “Degradation of substrate protein EGFR (substrate protein remaining %)” value is recorded as “A (A is defined as 0% ≤ substrate protein remaining % ≤ 80%)”. The IC50 in experiment [2] and in experiment [3] was 10 to 50 nM in each case.

On to `CN(Cc1cccc(N2CCC(=O)NC2=O)c1)C1CCN(c2ccc(Nc3ncc4nc(Nc5ccccc5)n(C5CCCC5)c4n3)cc2)CC1` [GT-05870, 1-(3-(((1-(4-((9-cyclopentyl-8-(phenylamino)-9H-purin-2-yl)amino)phenyl)piperidin-4-yl)(methyl)amino)methyl)phenyl)dihydropyrimidine-2,4(1H,3H)-dione], for which the “Degradation of substrate protein EGFR (substrate protein remaining %)” value in experiment [1] is “A (A is defined as 0% ≤ substrate protein remaining % ≤ 80%)”. For the same molecule, the IC50 lay in the range of 10 to 50 nM in experiment [2], 1 to 10 nM in experiment [3] and 100 to 500 nM in experiment [4].

As for `O=C1CCN(c2cccc(CN3CCN(C4CCN(c5ccc(Nc6ncc7nc(Nc8ccccc8)n(C8CCCC8)c7n6)cc5)CC4)CC3)c2)C(=O)N1` [GT-05940, 1-(3-((4-(1-(4-((9-cyclopentyl-8-(phenylamino)-9H-purin-2-yl)amino)phenyl)piperidin-4-yl)piperazin-1-yl)methyl)phenyl)dihydropyrimidine-2,4(1H,3H)-dione], in experiment [1], the “Degradation of substrate protein EGFR (substrate protein remaining %)” value is reported as “A (A is defined as 0% ≤ substrate protein remaining % ≤ 80%)”. The IC50 in experiment [2] was 1 to 10 nM; in experiment [3], 1 to 10 nM; in experiment [4], 100 to 500 nM.

As for `O=C1CCN(c2ccc(CN3CCN(C4CCN(c5ccc(Nc6ncc7nc(Nc8ccccc8)n(C8CCCC8)c7n6)cc5)CC4)CC3)nc2)C(=O)N1` [GT-05941, 1-(6-((4-(1-(4-((9-cyclopentyl-8-(phenylamino)-9H-purin-2-yl)amino)phenyl)piperidin-4-yl)piperazin-1-yl)methyl)pyridin-3-yl)dihydropyrimidine-2,4(1H,3H)-dione], the “Degradation of substrate protein EGFR (substrate protein remaining %)” value in experiment [1] is given as “A (A is defined as 0% ≤ substrate protein remaining % ≤ 80%)”. In addition, the IC50 fell in the range of 10 to 50 nM in experiment [2], 1 to 10 nM in experiment [3] and 100 to 500 nM in experiment [4].

Consider `O=C1CCC(Nc2cccc(CN3CCN(C4CCN(c5ccc(Nc6ncc7nc(Nc8ccccc8)n(C8CCCC8)c7n6)cc5)CC4)CC3)c2)C(=O)N1` (stereo not drawn) [GT-05943, 3-((3-((4-(1-(4-((9-cyclopentyl-8-(phenylamino)-9H-purin-2-yl)amino)phenyl)piperidin-4-yl)piperazin-1-yl)methyl)phenyl)amino)piperidine-2,6-dione], for which the “Degradation of substrate protein EGFR (substrate protein remaining %)” value in experiment [1] is listed as “A (A is defined as 0% ≤ substrate protein remaining % ≤ 80%)”. Besides, the IC50 in experiment [2] and in experiment [3] was 10 to 50 nM in each case.

In the case of `Cc1cc(-c2nc(C(=O)Nc3cc4oc(N5CCOCC5)nc4nc3N3CC[C@@H](O)C3)co2)ccn1` [emavusertib, reference compound], the IC50 in experiment [6] and in experiment [7] was more than 10000 nM each time.

The values above are taken from patent publication EP4678638A1, “NEW E3 UBIQUITIN LIGASE LIGAND, PROTEIN DEGRADATION AGENT AND USE THEREOF” (priority 2023, dated 2024).
